Assay results as given in US9624213B2 (Plexxikon Inc., priority 2011, dated 2017).

Experiments:
A375 = test: A375_P-ERK / A375 cell activity; assay type: cell-based; conditions: Homo sapiens, A-375; A375 cells (A375_P-ERK)
Protocol: (§1) Compounds are assessed in a variety of cell based assays. For example human cell lines with B-Raf V600E mutation (A375 melanoma, SKMEL3 melanoma, and COLO205 colon adenocarcinoma), as well as tumorigenic cell lines with wild-type B-RAF (SW620 colon adenocarcinoma) or with Ras mutations (SKMEL2 melanoma and IPC298 melanoma). Similar assays may be used to assess additional tumorigenic cell lines with Ras mutations, including, but not limited to, M202, M207, M243, M244, M296, S117, HCT116, HCT15, DLD1, MiaPaCa, A549, NCI-H23, NCI-H460, HOP62, MDA-MB231, Hs-578T, HL60, MOLT-4, and CCRF-CEM.
(§2) On day 1, cells are counted, then centrifuged in a conical tube for 5 minutes at 1000 rpm. The supernatant is removed and cells are re-suspended as follows: • SW620 (ATCC catalog #CCL-27): resuspend in Leibovitz's L-15 medium, 2 mM L-glutamine, 10% fetal bovine serum to 6×10^4 cells/mL. • A375 (ATCC catalog #CRL-1619): resuspend in Dulbecco's modified Eagle's medium, 4 mM L-glutamine, 4.5 g/L D-glucose, 10% fetal bovine serum to 6×10^4 cells/mL. • COLO205 (ATCC catalog #CCL-222): resuspend in RPMI 1640, 2 mM L-glutamine, 1.5 g/L sodium bicarbonate, 4.5 g/L D-glucose, 10 mM HEPES, 1.0 mM sodium pyruvate, 10% fetal bovine serum to 6×10^4 cells/mL. • SKMEL2 (ATCC catalog #HTB-68): resuspend in Minimum Eagle essential medium, 2 mM L-glutamine, 1.5 g/L sodium bicarbonate, 0.1 mM non-essential amino acids, 1.0 mM sodium pyruvate, 10% fetal bovine serum to 6×10^4 cells/mL. • SKMEL3 (ATCC catalog #HTB-69): resuspend in McCoy's 5A medium, 1.5 mM L-glutamine, 15% fetal bovine serum to 6×10^4 cells/mL. • IPC298 (DSMZ catalog #ACC 251): resuspend in RPMI 1640, 2 mM L-glutamine, 10% fetal bovine serum to 6×10^4 cells/mL.
(§3) The cells are plated, 50 μL in each well of a 96-well dish (Corning 3610) and incubated at 37° C. in 5% CO2 overnight, cells plated to a final concentration of cells as follows: • SW620: 5,000 cells per well. • A375: 2,000 cells per well. • COLO205: 2,000 cells per well. • SKMEL2: 2,000 cells per well. • SKMEL3: 3,000 cells per well. • IPC298: 2,000 cells per well.
(§4) On day 2, compound at a maximum concentration of 5 mM is serially diluted 1:3 (e.g. 10 μL with 30 μL dimethyl sulfoxide) for a total of 8 point titration with DMSO as a control. A 1 μL aliquot of each dilution point and control is added to 249 μL growth media and 50 μL is added to a well containing cells, providing 10 μM compound at the maximum concentration point. The cells are incubated for 3 days at 37° C. in 5% CO2.
(§5) On day 5, ATPlite 1 step Luminescence Assay System (Perkin Elmer #6016739) is brought to room temperature along with the cell cultures. ATPlite is added 25 μL to each well, shake for 2 minutes, and the cells are incubated at room temperature for 10 minutes, then luminescence is read on Satire reader. The measured luminescence correlates directly with cell number, such that the reading as a function of compound concentration is used to determine the IC50 value.

COLO205 = COLO205 cell growth inhibitory activity (ATPlite); assay type: cell-based; conditions: Homo sapiens, COLO 205, 72 h; COLO205 cells, growth inhibition, 3 days
Protocol: as §1, §2, §3, §4, §5

| SMILES | IC50 (A375) [µM] | IC50 (COLO205) [µM] |
| --- | --- | --- |
| O=C(c1c(F)ccc(NS(=O)(=O)N2CCCC2)c1F)c1c[nH]c2ncc(F)c(I)c12 [Compound P-0015, N-[2,4-difluoro-3-(5-fluoro-4-iodo-1H-pyrrolo[2,3-b]pyridine-3-carbonyl)phenyl]pyrrolidine-1-sulfonamide] | < 1 | > 1 |
| O=C(c1c(F)ccc(NS(=O)(=O)N2CCCC2)c1F)c1c[nH]c2ncc(-c3ccc(Cl)cc3)cc12 [Compound P-0021] | < 1 | < 1 |
| CN(C)c1ncc(-c2cnc3[nH]cc(C(=O)c4c(F)ccc(NS(=O)(=O)N5CCCC5)c4F)c3c2)cn1 [Compound P-0022] | < 1 | < 1 |
| O=C(c1c(F)ccc(NS(=O)(=O)N2CCCC2)c1F)c1c[nH]c2ncc(I)cc12 [Compound P-0024] | < 1 | > 1 |
| Cc1ccc(-c2cnc3[nH]cc(C(=O)c4cccc(NS(=O)(=O)N(C)C)c4F)c3c2)cn1 [Compound P-0029] | < 1 | < 1 |
| CN(C)c1ccc(-c2cnc3[nH]cc(C(=O)c4cccc(NS(=O)(=O)N(C)C)c4F)c3c2)cn1 [Compound P-0030] | < 1 | < 1 |
| CCN(C)S(=O)(=O)Nc1cccc(C(=O)c2c[nH]c3ncc(-c4ccc(C#N)cc4)cc23)c1F [Compound P-0031] | < 1 | < 1 |
| CCN(C)S(=O)(=O)Nc1cccc(C(=O)c2c[nH]c3ncc(-c4cccnc4)cc23)c1F [Compound P-0032] | < 1 | < 1 |
| CCN(C)S(=O)(=O)Nc1cccc(C(=O)c2c[nH]c3ncc(-c4ccccc4)cc23)c1F [Compound P-0036, 3-[3-[[ethyl(methyl)sulfamoyl]amino]-2-fluoro-benzoyl]-5-phenyl-1H-pyrrolo[2,3-b]pyridine] | < 1 | > 1 |
| CN(C)S(=O)(=O)Nc1cccc(C(=O)c2c[nH]c3ncc(-c4ccccc4)cc23)c1F [Compound P-0037, 3-[3-(dimethylsulfamoylamino)-2-fluoro-benzoyl]-5-phenyl-1H-pyrrolo[2,3-b]pyridine] | < 1 | > 1 |
| COc1ncc(-c2cnc3[nH]cc(C(=O)c4cccc(NS(=O)(=O)N5CCC(OCc6ccccc6)C5)c4F)c3c2)cn1 (stereo not drawn) [Compound P-0041, 3-benzyloxy-N-[2-fluoro-3-[5-(2-methoxypyrimidin-5-yl)-1H-pyrrolo[2,3-b]pyridine-3-carbonyl]phenyl]pyrrolidine-1-sulfonamide] | > 1 |  |
| CN(C)c1ccc(-c2cnc3[nH]cc(C(=O)c4cccc(NS(=O)(=O)N5CCCC5)c4F)c3c2)cn1 [Compound P-0046, N-[3-[5-[6-(dimethylamino)-3-pyridyl]-1H-pyrrolo[2,3-b]pyridine-3-carbonyl]-2-fluoro-phenyl]pyrrolidine-1-sulfonamide] | < 1 | < 1 |
| CCN(C)S(=O)(=O)Nc1cccc(C(=O)c2c[nH]c3ncc(-c4ccc(C5(C#N)CC5)cc4)cc23)c1F [Compound P-0061, 5-[4-(1-cyanocyclopropyl)phenyl]-3-[3-[[ethyl(methyl)sulfamoyl]amino]-2-fluoro-benzoyl]-1H-pyrrolo[2,3-b]pyridine] | < 1 | < 1 |
| COC(=O)CCS(=O)(=O)Nc1cccc(C(=O)c2c[nH]c3ncc(-c4cnc(OC)nc4)cc23)c1F [Compound P-0066, methyl 3-[[2-fluoro-3-[5-(2-methoxypyrimidin-5-yl)-1H-pyrrolo[2,3-b]pyridine-3-carbonyl]phenyl]sulfamoyl]propanoate] | < 1 | < 1 |
| COc1ncc(-c2cnc3[nH]cc(C(=O)c4cccc(NS(=O)(=O)C5CC5)c4F)c3c2)cn1 [Compound P-0067, N-[2-fluoro-3-[5-(2-methoxypyrimidin-5-yl)-1H-pyrrolo[2,3-b]pyridine-3-carbonyl]phenyl]cyclopropanesulfonamide] | < 1 | > 1 |
| COc1ncc(-c2cnc3[nH]cc(C(=O)c4cccc(NS(=O)(=O)N(C)C(C)C)c4F)c3c2)cn1 [Compound P-0075, 3-[2-fluoro-3-[[isopropyl(methyl)sulfamoyl]amino]benzoyl]-5-(2-methoxypyrimidin-5-yl)-1H-pyrrolo[2,3-b]pyridine] | < 1 | > 1 |
| CCCN(C)S(=O)(=O)Nc1ccc(F)c(C(=O)c2c[nH]c3ncc(-c4ccc(C5(C#N)CC5)cc4)cc23)c1F [Compound P-0079, 5-[4-(1-cyanocyclopropyl)phenyl]-3-[2,6-difluoro-3-[[methyl(propyl)sulfamoyl]amino]benzoyl]-1H-pyrrolo[2,3-b]pyridine] | < 1 | < 1 |
| CCCN(C)S(=O)(=O)Nc1cccc(C(=O)c2c[nH]c3ncc(-c4cnc(NC5CC5)nc4)cc23)c1F [Compound P-0082, 5-[2-(cyclopropylamino)pyrimidin-5-yl]-3-[2-fluoro-3-[[methyl(propyl)sulfamoyl]amino]benzoyl]-1H-pyrrolo[2,3-b]pyridine] | < 1 | < 1 |
| COc1ncc(-c2cnc3[nH]cc(C(=O)c4cccc(NS(=O)(=O)N(C)CC5CC5)c4F)c3c2)cn1 [Compound P-0083, 3-[3-[[cyclopropylmethyl(methyl)sulfamoyl]amino]-2-fluoro-benzoyl]-5-(2-methoxypyrimidin-5-yl)-1H-pyrrolo[2,3-b]pyridine] | < 1 | < 1 |
| CCCN(C)S(=O)(=O)Nc1cccc(C(=O)c2c[nH]c3ncc(-c4cnc(C5CC5)nc4)cc23)c1F [Compound P-0086, 5-(2-cyclopropylpyrimidin-5-yl)-3-[2-fluoro-3-[[methyl(propyl)sulfamoyl]amino]benzoyl]-1H-pyrrolo[2,3-b]pyridine] | < 1 | < 1 |
| CCN(C)S(=O)(=O)Nc1cccc(C(=O)c2c[nH]c3ncc(-c4ccc(C5CC5)nc4)cc23)c1F [Compound P-0087, 5-(6-cyclopropyl-3-pyridyl)-3-[3-[[ethyl(methyl)sulfamoyl]amino]-2-fluoro-benzoyl]-1H-pyrrolo[2,3-b]pyridine] | < 1 | < 1 |
| N#Cc1ncc(-c2cnc3[nH]cc(C(=O)c4cccc(NS(=O)(=O)N5CCCC5)c4F)c3c2)cn1 [Compound P-0091, N-[3-[5-(2-cyanopyrimidin-5-yl)-1H-pyrrolo[2,3-b]pyridine-3-carbonyl]-2-fluoro-phenyl]pyrrolidine-1-sulfonamide] | < 1 | < 1 |
| CN(C)S(=O)(=O)Nc1cccc(C(=O)c2c[nH]c3ncc(-c4cnc(C#N)nc4)cc23)c1F [Compound P-0096, 5-(2-cyanopyrimidin-5-yl)-3-[3-(dimethylsulfamoylamino)-2-fluoro-benzoyl]-1H-pyrrolo[2,3-b]pyridine] | < 1 | < 1 |
| CCN(C)S(=O)(=O)Nc1cccc(C(=O)c2c[nH]c3ncc(-c4cncc(C#N)c4)cc23)c1F [Compound P-0101, 5-(5-cyano-3-pyridyl)-3-[3-[[ethyl(methyl)sulfamoyl]amino]-2-fluoro-benzoyl]-1H-pyrrolo[2,3-b]pyridine] | < 1 |  |
| CC1(C)CCN(S(=O)(=O)Nc2cccc(C(=O)c3c[nH]c4ncc(-c5cnc(C6CC6)nc5)cc34)c2F)C1 [Compound P-0246, N-[3-[5-(2-cyclopropylpyrimidin-5-yl)-1H-pyrrolo[2,3-b]pyridine-3-carbonyl]-2-fluoro-phenyl]-3,3-dimethyl-pyrrolidine-1-sulfonamide] | > 1 |  |
| CCOC(=O)C1CCCN1S(=O)(=O)Nc1cccc(C(=O)c2c[nH]c3ncc(-c4cnc(OC)nc4)cc23)c1F (stereo not drawn) [Compound P-0257, ethyl 1-[[2-fluoro-3-[5-(2-methoxypyrimidin-5-yl)-1H-pyrrolo[2,3-b]pyridine-3-carbonyl]phenyl]sulfamoyl]pyrrolidine-2-carboxylate] |  | > 1 |
